Laboratory results published in patent US11987586B1 (TAKEDA PHARMACEUTICAL COMPANY LIMITED, priority 2022, dated 2024).

Target: T1, human OX2 receptor (Homo sapiens, UniProt O43614)
T1 construct: expressed in transfected cells
T1 sequence (O43614 1-444): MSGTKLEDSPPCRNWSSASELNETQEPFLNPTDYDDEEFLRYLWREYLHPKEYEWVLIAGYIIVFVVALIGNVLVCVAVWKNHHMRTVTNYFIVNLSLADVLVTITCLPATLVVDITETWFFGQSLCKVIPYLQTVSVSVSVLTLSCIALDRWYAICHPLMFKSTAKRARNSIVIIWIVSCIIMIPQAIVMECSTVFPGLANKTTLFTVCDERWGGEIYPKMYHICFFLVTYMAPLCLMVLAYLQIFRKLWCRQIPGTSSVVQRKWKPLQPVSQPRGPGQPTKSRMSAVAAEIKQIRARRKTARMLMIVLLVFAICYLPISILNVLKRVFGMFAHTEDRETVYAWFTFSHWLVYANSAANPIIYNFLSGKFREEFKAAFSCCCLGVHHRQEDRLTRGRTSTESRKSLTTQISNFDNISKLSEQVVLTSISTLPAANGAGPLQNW
Assay: Measurement of orexin type 2 receptor agonist activity (calcium fluorescence, Fluo-4, FDSS)
Type: cell-based
Details: 3 uM test compound; CHO cells expressing human OX2 receptor; DMSO = 0%, 10 nM orexin A (human) = 100%
Procedure, shortened: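 Agonist activity (%) was normalised to the response to 10 nM final human orexin A (100%) and to the DMSO vehicle (0%). The response was measured as the Fluo-4 calcium signal, read kinetically over 1 min 40 s after compound addition to Fluo-4/probenecid-loaded stable CHO-K1 clones expressing human OX2 (aa 1-444).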

OX2R agonist activity (3 uM, %) | SMILES
104% | CCOc1cc(-c2c(F)cccc2F)c2c(N3CC[C@H]4N(C[C@@H](NS(=O)(=O)CC)C4(F)F)C3=O)noc2c1 [Example 299, N-{(4aR,6R)-2-[4-(2,6-difluorophenyl)-6-ethoxy-1,2-benzoxazol-3-yl]-5,5-difluoro-1-oxooctahydropyrrolo[1,2-c]pyrimidin-6-yl}ethanesulfonamide]
104% | CS(=O)(=O)N[C@@H]1Cn2c(cn(-c3noc4cc(CO)c(F)c(-c5c(F)cc(F)cc5F)c34)c2=O)C1(F)F [Example 185, N-{(6R)-7,7-difluoro-2-[5-fluoro-6-(hydroxymethyl)-4-(2,4,6-trifluorophenyl)-1,2-benzoxazol-3-yl]-3-oxo-2,5,6,7-tetrahydro-3H-pyrrolo[1,2-c]imidazol-6-yl}methanesulfonamide]
98% | COCc1cc2onc(N3CC[C@H]4N(C[C@@H](NS(C)(=O)=O)C4(F)F)C3=O)c2c(-c2c(F)cc(F)cc2F)c1F [Example 227, N-{(4aR,6R)-5,5-difluoro-2-[5-fluoro-6-(methoxymethyl)-4-(2,4,6-trifluorophenyl)-1,2-benzoxazol-3-yl]-1-oxooctahydropyrrolo[1,2-c]pyrimidin-6-yl}methanesulfonamide]
103% | CCS(=O)(=O)N[C@@H]1Cn2c(cn(-c3noc4cc(C)c(F)c(-c5c(F)cccc5F)c34)c2=O)C1(F)F [Example 169, N-{(6R)-2-[4-(2,6-difluorophenyl)-5-fluoro-6-methyl-1,2-benzoxazol-3-yl]-7,7-difluoro-3-oxo-2,5,6,7-tetrahydro-3H-pyrrolo[1,2-c]imidazol-6-yl}ethanesulfonamide]
101% | CCS(=O)(=O)N[C@@H]1CN2C(=O)N(c3noc4cc(F)cc(-c5c(F)cccc5F)c34)CC[C@@H]2C1(F)F [Example 247, N-{(4aR,6R)-2-[4-(2,6-difluorophenyl)-6-fluoro-1,2-benzoxazol-3-yl]-5,5-difluoro-1-oxooctahydropyrrolo[1,2-c]pyrimidin-6-yl}ethanesulfonamide]
98% | CCS(=O)(=O)N[C@@H]1CN2C(=O)N(c3noc4nc(C)cc(-c5c(F)cc(F)cc5F)c34)C[C@@H]2C1(F)F [Example 175, N-{(6R,7aR)-7,7-difluoro-2-[6-methyl-4-(2,4,6-trifluorophenyl)[1,2]oxazolo[5,4-b]pyridin-3-yl]-3-oxohexahydro-1H-pyrrolo[1,2-c]imidazol-6-yl}ethanesulfonamide]
104% | CS(=O)(=O)N[C@@H]1CN2C(=O)N(c3noc4cccc(-c5ccccc5)c34)CC[C@@H]2C1(F)F [Example 223, N-[(4aR,6R)-5,5-difluoro-1-oxo-2-(4-phenyl-1,2-benzoxazol-3-yl)octahydropyrrolo[1,2-c]pyrimidin-6-yl]methanesulfonamide]
113% | O=C1N(c2noc3cc(F)c(F)c(-c4c(F)cc(F)cc4F)c23)CC[C@H]2N1C[C@@H](NS(=O)(=O)C1CC1)C2(F)F [Example 305, N-{(4aR,6R)-2-[5,6-difluoro-4-(2,4,6-trifluorophenyl)-1,2-benzoxazol-3-yl]-5,5-difluoro-1-oxooctahydropyrrolo[1,2-c]pyrimidin-6-yl}cyclopropanesulfonamide]
100% | CS(=O)(=O)N[C@@H]1Cn2c(cn(-c3noc4cc(F)c(F)c(-c5c(F)cc(F)cc5F)c34)c2=O)C1(F)F [Example 135, N-{(6R)-2-[5,6-difluoro-4-(2,4,6-trifluorophenyl)-1,2-benzoxazol-3-yl]-7,7-difluoro-3-oxo-2,5,6,7-tetrahydro-3H-pyrrolo[1,2-c]imidazol-6-yl}methanesulfonamide]
79% | CS(=O)(=O)N[C@@H]1C[C@H]2CN(c3noc4cccc(-c5c(F)cccc5F)c34)C(=O)[C@H]2C1 (relative stereo) [Example 337, rel-N-{(3aR,5R,6aS)-2-[4-(2,6-difluorophenyl)-1,2-benzoxazol-3-yl]-1-oxooctahydrocyclopenta[c]pyrrol-5-yl}methanesulfonamide]
113% | O=C1N(c2noc3ccc(F)c(-c4c(F)cc(F)cc4F)c23)CC[C@H]2N1C[C@@H](NS(=O)(=O)CF)C2(F)F [Example 207, N-{(4aR,6R)-5,5-difluoro-2-[5-fluoro-4-(2,4,6-trifluorophenyl)-1,2-benzoxazol-3-yl]-1-oxooctahydropyrrolo[1,2-c]pyrimidin-6-yl}-1-fluoromethanesulfonamide]
102% | CCS(=O)(=O)N[C@@H]1CN2C(=O)N(c3noc4cc(F)c(F)c(-c5c(F)cccc5F)c34)C[C@@H]2C1(F)F [Example 168, N-{(6R,7aR)-2-[4-(2,6-difluorophenyl)-5,6-difluoro-1,2-benzoxazol-3-yl]-7,7-difluoro-3-oxohexahydro-1H-pyrrolo[1,2-c]imidazol-6-yl}ethanesulfonamide]
96% | CCS(=O)(=O)N[C@@H]1Cn2c(cn(-c3noc4cc(C)cc(-c5c(F)cc(F)cc5F)c34)c2=O)C1(F)F [Example 155, N-{(6R)-7,7-difluoro-2-[6-methyl-4-(2,4,6-trifluorophenyl)-1,2-benzoxazol-3-yl]-3-oxo-2,5,6,7-tetrahydro-3H-pyrrolo[1,2-c]imidazol-6-yl}ethanesulfonamide]
104% | CCS(=O)(=O)N[C@@H]1CN2C(=O)N(c3noc4ccc(F)c(-c5c(F)cccc5F)c34)CC[C@@H]2C1(F)F [Example 269, N-{(4aR,6R)-2-[4-(2,6-difluorophenyl)-5-fluoro-1,2-benzoxazol-3-yl]-5,5-difluoro-1-oxooctahydropyrrolo[1,2-c]pyrimidin-6-yl}ethanesulfonamide]
108% | CCS(=O)(=O)N[C@@H]1Cn2c(cn(-c3noc4nc(C5CC5)cc(-c5c(F)cccc5F)c34)c2=O)C1(F)F [Example 211, N-{(6R)-2-[6-cyclopropyl-4-(2,6-difluorophenyl)[1,2]oxazolo[5,4-b]pyridin-3-yl]-7,7-difluoro-3-oxo-2,5,6,7-tetrahydro-3H-pyrrolo[1,2-c]imidazol-6-yl}ethanesulfonamide]
97% | CCS(=O)(=O)N[C@@H]1CN2C(=O)N(c3noc4cccc(-c5ccc(F)cc5C)c34)CC[C@@H]2C1(F)F [Example 323, N-{(4aR,6R)-5,5-difluoro-2-[4-(4-fluoro-2-methylphenyl)-1,2-benzoxazol-3-yl]-1-oxooctahydropyrrolo[1,2-c]pyrimidin-6-yl}ethanesulfonamide]
97% | CCS(=O)(=O)N[C@@H]1CN2C(=O)N(c3noc4cc(Cl)cc(-c5c(F)cccc5F)c34)C[C@@H]2C1(F)F [Example 67, N-{(6R,7aR)-2-[6-chloro-4-(2,6-difluorophenyl)-1,2-benzoxazol-3-yl]-7,7-difluoro-3-oxohexahydro-1H-pyrrolo[1,2-c]imidazol-6-yl}ethanesulfonamide]
91% | CS(=O)(=O)N[C@@H]1CN2C(=O)N(c3noc4ccc(F)c(-c5c(F)cc(F)cc5F)c34)C[C@@H]2C1(F)F [Example 47, N-{(6R,7aR)-7,7-Difluoro-2-[5-fluoro-4-(2,4,6-trifluorophenyl)-1,2-benzoxazol-3-yl]-3-oxohexahydro-1H-pyrrolo[1,2-c]imidazol-6-yl}methanesulfonamide]
